Values of other authors in patent US10722516B2, “Use of landiolol hydrochloride in the long-term treatment of tachyarrhythmias” (AOP Orphan Pharmaceuticals AG, priority 2013, dated 2020).
Counter-ions that a name gives are not always drawn.

Conditions: in vivo; cited from earlier work

COC(=O)CCc1ccc(OCC(O)CNC(C)C)cc1 (stereo not drawn) [Esmolol, Esmolol hydrochloride]
alpha-distribution half-life: approximately 2 minutes | total body clearance relative to cardiac output: ~3 times | total body clearance relative to hepatic blood flow: ~14 times
